Reference: patent US11917996B2, “Herbicidal compositions for animal grazelands and methods for applying the same” (DISCOVERY PURCHASER CORPORATION, priority 2018, dated 2024)

Columns and labels:
ventenata = assay: Pre-emergence control of ventenata; type: in vivo, Ventenata dubia
Source text: (§1) This provides land managers with a new opportunity to start the process of eliminating the annual grass seed bank. […] This makes indaziflam an effective tool to start the process of depleting the invasive annual grass soil seed bank. Furthermore, providing long-term control of annual grasses with indaziflam results in both reduced thatch that serves as fuel for highly destructive wildfires, and the effective creation of firebreaks that protect communities of desirable perennials. As a result, native ecosystems are promoted, allowing for increased habitat for animal species of concern including wildlife and pollinators.

[1] = pH 7; cited from earlier work
[2] = Human safety risk assessment (aggregate dietary and non-dietary exposure, current EPA practice); parameters: species or system US Population
Source text: Human safety risk assessments have been conducted, using current EPA practice, for all the current and proposed new uses of indaziflam. Chronic aggregate dietary exposure (food and water) will utilize less than 4% of the cPAD for the US Population. Acute aggregate dietary exposure (food and water) for the U.S. population, utilizes 7% of the aPAD.

[3] = Dairy cow feeding study: total indaziflam residue in milk and tissues after 29 consecutive days of dosing; type: in vivo, lactating Holstein dairy cows (Bos taurus)
Method: A feeding study was conducted to measure total indaziflam residue in milk, cream (milk fat), skim milk (whey), mesenteric (omental) fat, perirenal fat, subcutaneous fat, liver, kidney, muscle and excrement (feces or faeces) from lactating Holstein dairy cows (Bos taurus) following 29 consecutive days of dosing with indaziflam. The base daily dose of indaziflam was calculated to be 31 mg/kg dry matter feed. Four groups of cows were fed at 0 (control—two cows), 31 (1×—three cows), […] (3×—three cows) and 311 (10×—seven cows) mg/kg dry matter feed.
Milk was collected twice daily from all dose groups, morning and evening. Doses were administered after the morning milking. Milk was subsampled for analysis from the controls and all dose groups on study days 0, 2, 4, 7, 10, 14, 17, 21, 25, and 28. […]
The remaining cows (one control and four from the 10× dose level) entered the depuration phase of the study. […] Milk, tissues and excrement from the cows sacrificed at each interval were analyzed to monitor the decline of the residues of indaziflam and its metabolites. […]
The individual analyte derived residues were converted to indaziflam parent equivalents and summed to give a total indaziflam residue. The limit of quantitation (LOQ) for total indaziflam residue was 0.05 ppm for fat, kidney, muscle and liver. […]

cheatgrass = assay: Pre-emergence control of cheatgrass; type: in vivo, Bromus tectorum
Source text: as §1

medusahead = assay: Pre-emergence control of medusahead; type: in vivo, Taeniatherum caput-medusae
Source text: as §1

[4] = Ruminant metabolism studies with 14C-labelled indaziflam; type: in vivo, ruminants; conditions: [triazine-2,4-14C] and [indane-3-14C] indaziflam
Source text: Ruminant metabolism studies have been conducted with both [triazine-2,4-^14C] indaziflam and [indane-3-^14C] indaziflam according to current EPA guidelines. Accumulation into the edible tissues was low and the metabolism of indaziflam in ruminants is well understood.

SMILES: Cc1ccc2c(c1)[C@H](Nc1nc(N)nc(C(C)F)n1)[C@@H](C)C2 (mixture of isomers) [indaziflam, N2-[(1R,2S)-2,3-dihydro-2,6-dimethyl-1H-inden-1-yl]-6-[(1RS)-1-fluoroethyl]-1,3,5-triazine-2,4-diamine]
- Pre-emergence effectiveness compared with imazapic (ventenata): significantly more effective
- log Kow [1]: 2.8
- Non-dietary and aggregate margins of exposure (food, drinking water, and non-dietary) [2]: above the Level of Concern
- Acute aggregate dietary exposure (food and water), utilization of the aPAD ([2]; U.S. population): 7 % of the aPAD
- Chronic aggregate dietary exposure (food and water), utilization of the cPAD ([2]; US Population, all current and proposed new uses): less than 4 % of the cPAD
- Average total indaziflam residues in muscle ([3]; 1× rate, Day 29, LOQ 0.05 ppm): < LOQ
- Residues in all tissues and milk in the depuration phase ([3]; 10× dose cows, 3 to 21 days after end of dosing): declined rapidly
- Pre-emergence effectiveness compared with imazapic (cheatgrass; cheatgrass): significantly more effective
- Long-term control of cheatgrass (cheatgrass; single application): at least three years
- Pre-emergence effectiveness compared with imazapic (medusahead): significantly more effective
- Accumulation into the edible tissues [4]: low
